# Measured values reported in paper PMC8079061 (Pharmaceutical Biology, 2021).
# Columns and labels:
# RLM = experiment: Inhibition of poziotinib metabolism; format: in vitro ADME, rat
# HLM = experiment: Inhibition of poziotinib metabolism; format: in vitro ADME, human
# recombinant human CYP3A4 = recombinant human CYP3A4 (Homo sapiens, UniProt P08684); experiment: Inhibition of poziotinib metabolism; format: in vitro ADME; settings: CYP3A4, stated in abstract
# recombinant human CYP2D6 = recombinant human CYP2D6 (Homo sapiens, UniProt P10635); experiment: Inhibition of poziotinib metabolism; format: in vitro ADME; settings: CYP2D6, stated in abstract
# [1] = healthy volunteers, coadministered with paroxetine; ref Ruiz-Garcia et al. [2014]; cited from earlier work
# [2] = format: in vivo, Sprague–Dawley rats
# [3] = dogs, oral dose of 0.3 mg/kg poziotinib; ref Kim et al. [2013]; cited from earlier work
# [4] = patients, combined with paclitaxel and trastuzumab; ref Kim TY et al. [2019]; cited from earlier work
# [5] = rat, preadministered with dacomitinib (10 mg/kg) for two weeks
# Chain of recombinant human CYP3A4 (P08684 whole entry): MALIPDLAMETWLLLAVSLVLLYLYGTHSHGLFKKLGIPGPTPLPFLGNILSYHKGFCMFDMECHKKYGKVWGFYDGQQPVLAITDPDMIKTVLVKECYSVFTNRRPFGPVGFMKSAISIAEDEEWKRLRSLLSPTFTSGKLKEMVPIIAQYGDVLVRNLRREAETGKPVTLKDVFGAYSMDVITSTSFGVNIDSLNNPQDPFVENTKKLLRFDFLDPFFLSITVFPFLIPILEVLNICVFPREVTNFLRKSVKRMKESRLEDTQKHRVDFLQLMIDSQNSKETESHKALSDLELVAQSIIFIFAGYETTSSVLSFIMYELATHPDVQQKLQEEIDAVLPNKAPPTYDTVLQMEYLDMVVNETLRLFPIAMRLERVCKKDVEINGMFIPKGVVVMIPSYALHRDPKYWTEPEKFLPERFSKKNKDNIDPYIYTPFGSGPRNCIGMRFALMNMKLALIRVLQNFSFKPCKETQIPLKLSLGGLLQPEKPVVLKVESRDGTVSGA
# Chain of recombinant human CYP2D6 (P10635 whole entry): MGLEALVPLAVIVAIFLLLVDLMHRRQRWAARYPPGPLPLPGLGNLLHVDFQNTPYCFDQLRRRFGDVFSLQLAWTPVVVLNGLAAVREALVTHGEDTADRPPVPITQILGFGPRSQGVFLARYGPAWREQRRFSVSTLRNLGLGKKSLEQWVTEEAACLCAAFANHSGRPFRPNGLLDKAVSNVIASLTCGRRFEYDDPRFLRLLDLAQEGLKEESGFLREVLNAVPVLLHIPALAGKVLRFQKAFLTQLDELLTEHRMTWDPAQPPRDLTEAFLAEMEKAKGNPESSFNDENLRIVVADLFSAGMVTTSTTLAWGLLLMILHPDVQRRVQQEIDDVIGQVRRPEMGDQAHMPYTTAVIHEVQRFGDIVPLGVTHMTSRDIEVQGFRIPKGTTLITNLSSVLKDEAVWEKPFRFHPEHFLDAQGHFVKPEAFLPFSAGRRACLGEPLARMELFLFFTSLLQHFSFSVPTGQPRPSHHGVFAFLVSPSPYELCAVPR
smiles,measurement,setting,value
"COc1cc2ncnc(Nc3ccc(F)c(Cl)c3)c2cc1NC(=O)/C=C/CN1CCCCC1 [dacomitinib, Dacomitinib]",mechanism of inhibition of poziotinib metabolism,RLM,mixed inhibitor
same,Ki,RLM; M1,8.18 µM
same,αKi,RLM; M1,38.81 µM
same,Inhibition type,"RLM; M1, Lineweaver–Burk plot",Mixed
same,Ki,RLM; M2,47.5 µM
same,αKi,RLM; M2,38.07 µM
same,Inhibition type,"RLM; M2, Lineweaver–Burk plot",Mixed
same,mechanism of inhibition of poziotinib metabolism,HLM,mixed inhibitor
same,Ki,HLM; M1,83.7 µM
same,αKi,HLM; M1,93.73 µM
same,Inhibition type,"HLM; M1, Lineweaver–Burk plot",Mixed
same,Ki,HLM; M2,0.17 µM
same,Inhibition type,"HLM; M2, Lineweaver–Burk plot",Mixed
same,mechanism of inhibition of poziotinib metabolism,recombinant human CYP3A4,mixed way
same,mechanism of inhibition of poziotinib metabolism,recombinant human CYP2D6,mixed way
same,increase of dacomitinib exposure,[1],37%
"C=CC(=O)N1CCC(Oc2cc3c(Nc4ccc(Cl)c(Cl)c4F)ncnc3cc2OC)CC1 [poziotinib, Poziotinib]",delay of Tmax of poziotinib after pre-treatment with dacomitinib,[2]; rat,~3 h
same,"increase of AUC(0–t) of poziotinib, test group vs control group","[2]; rat, dacomitinib pre-treatment two weeks, p < 0.01",1.6 fold
same,"increase of Tmax of poziotinib, test group vs control group",[2]; [5],1.3 fold
same,"increase of t1/2 of poziotinib, test group vs control group",[2]; [5],1.6 fold
same,adverse effects observed,"[2]; rats, poziotinib 10 mg/kg oral with or without dacomitinib",No obvious adverse effects were observed
same,Tmax,[3],0.40 to 1.00 h
same,t1/2,[3],3.40 to 5.40 h
same,maximum tolerated dose (MTD),[4],8 mg/day
